# Measurements as given in US7488712B2, “Histone deacetylase inhibitors and methods for producing the same” (Kyushu Institute of Technology, priority 2002, dated 2009).
# Like-named read-outs stand apart in the source and are kept apart here.
# Tests used:
# [1] = system: human wild-type p21 promoter; experiment: p21 promoter-inducing activity (luciferase) in MFLL-9 cells; assay type: cell-based
# in vitro = conditions: human, Cancer-Cell-Selective Cytotoxicity, LD50 for normal cells/LD50 for cancer cells (TIG-3/HeLa)
# Protocol: Human normal lung cells (TIG-3) and human uterine cancer cells (HeLa) were used to test SCOP cytotoxicity. These TIG-3 and HeLa cells were cultured in a DMEM medium comprising 10% FBS at 37° C. in the presence of 5% carbon dioxide in a steam-saturated incubator. The TIG-3 and HeLa cells were plated in 100 μl/well of the above-described medium on a 96-well microtiter plate, at a density of 30,000 cells/well and 10,000 cells/well respectively. This was then cultured for 18 hours. Test compound solution diluted with medium was added to each well and culture was continued for another 48 hours.
# 30 μl of supernatant from each well was transferred to another 96-well microtiter plate (A), and the remaining supernatant was discarded. 100 μl of 0.5% Triton-X/PBS was added to each well to lyse the cells, and 30 μl was then transferred to each respective well of another 96-well microtiter plate (B). 30 μl of LDH-Cytotoxic Test (Wako) substrate solution was added to each well of these 96-well microtiter plates A and B, causing a color reaction. Once the color reaction was sufficiently progressed, it was stopped by adding 60 μl of a quenching solution. Color intensity was measured at OD560 nm using a microplate reader (Softmax). [A/(A+B)] was calculated as the free-LDH ratio. […] The higher the activity value for cancer-cell-selective cell damage (LD50 for normal cells/LD50 for cancer cells), the more that cancer-cell-selective apoptosis was induced.
# [2] = Cytotoxicity test (free-LDH ratio), TIG-3; assay type: cell-based; conditions: human, TIG-3 human normal lung cells, 48 hours, free-LDH ratio 50%, read-out: LD50 (nM) TIG-3
# Protocol: This was then cultured for 18 hours.
compound,measurement,setting,value
"CC[C@H](C)[C@@H]1NC(=O)[C@@H](Cc2ccc(OC)cc2)NC(=O)[C@H](CCCCCSSc2ccncc2)NC(=O)[C@H]2CCCN2C1=O [SCOP 402, cyclo(-L-Am7(S4Py)-D-Tyr(Me)-L-Ile-D-Pro-)]",EC50,"[1]; Table 3, hybrid with DTT (/DTT)",470 nM
same,EC50,"[1]; Table 3, hybrid, without DTT",1310 nM
same,selectivity ratio at 48 h,in vitro; with DTT (/DTT),27.8
same,selectivity ratio at 48 h,in vitro; without DTT,11.4
same,CC50 at 48 h,[2]; with DTT (/DTT),4460 nM
same,CC50 at 48 h,[2]; without DTT,13300 nM
